In one experiment the test system is E. coli ATCC 9723H. Type of experiment: cell-based. The settings on record: range over 3–9 independent experiments. How it is done: (§1) Bacterial strains used in this study were: E. coli ATCC 9723H, Pseudomonas aeruginosa ATCC 10148, Staphylococcus aureus ATCC 6538P (penicillin resistant), Streptococcus pyogenes (hospital isolate, strain unknown), Mycobacterium smegmatis MC^2155, N. gonorrhoeae ATCC 700825 (streptomycin resistant), and Salmonella enterica subsp. enterica serovar Typhimurium SL1344 (streptomycin resistant). E. coli, P. aeruginosa, S. aureus, M. smegmatis, and S. enterica were cultured aerobically at 37°C in Mueller Hinton broth (MHB) (Sigma-Aldrich, MO, United States) and on nonselective Mueller Hinton agar (MHA) plates. S. pyogenes was cultured in 5% carbon dioxide at 37°C in MHB supplemented with 5% lysed horse blood (Quad Five, MT, United States) (MHB + 5% HB) and on nonselective MHA plates supplemented with 5% defibrinated sheep blood (Quad Five, MT, United States) (MHA + 5% SB). N. gonorrhoeae was cultured in 5% carbon dioxide at 37°C in gonococcal (GC) chocolate broth medium and on nonselective GC agar plates [GC medium base (BD Difco, MD, United States) supplemented with 1% BBL™ hemoglobin (BD Biosciences, MD, United States) and 1% IsoVitaleX (BD Biosciences, MD, United States)]. Prior to antimicrobial susceptibility assays (as described below), N. gonorrhoeae cultures were subcultured on nonselective GC agar plates (as described above), to ensure bacterial viability. All bacterial stocks were stored in 20% glycerol at –80°C.
(§2) Bacterial suspensions were prepared by transferring bacterial colonies into MHB and resuspending using a vortex mixer to ensure complete suspension of any bacterial aggregates. Turbidity of the colony suspensions was adjusted spectrophotometrically to the required optical densities to achieve a turbidity equivalent to that of a 0.5 McFarland standard (1–2 × 10^8 CFU/mL) followed by dilution in MHB to achieve the standardized microbial inoculum of approximately 5 × 10^5 CFU/mL. Total viable counts (TVC) were routinely performed on all inoculum suspensions to ensure correct bacterial cell densities. The standardized bacterial suspensions were then incubated with two-fold serial dilutions of each peptide (dissolved in 11 μL of ultrapure sterile water; final peptide concentration range of 256 μg/mL–0.5 μg/mL) in Greiner polypropylene round bottom 96-well microtiter plates (Sigma-Aldrich, MO, United States). Each peptide was tested once per experiment, with a range of 3–9 independent experiments performed per peptide. Negative growth/sterility control wells contained bacterial growth media (100 μL) and the peptide solvent (11 μL of ultrapure sterile water). Positive growth control wells contained the standardized number of bacterial cells (100 μL of ∼ 5.0 × 10^5 CFU/mL) and peptide solvent (11 μL of ultrapure sterile water). Plates were incubated at 37°C for 16–24 h and MICs were determined using the unaided eye to identify the lowest concentration of AMP that inhibited visible growth of the tested bacterial species. If the sterility control well was turbid, the test was not considered valid. MBCs were determined by plating the entire content of the wells containing the peptide/bacteria mixture representing the MIC and the entire contents of the preceding wells containing two-fold and four-fold more concentrated AMP dilutions onto nonselective agar plates.

The next experiment relates to P. aeruginosa ATCC 10148. Type of experiment: cell-based, Pseudomonas aeruginosa. Conditions: range over 3–9 independent experiments. How it is done:
as §1, §2

A further experiment deals with S. enterica SL1344. Type of experiment: cell-based, Salmonella enterica subsp. enterica serovar Typhimurium. Conditions: range over 3–9 independent experiments. How it is done:
as §1
(§3) Bacterial suspensions were prepared by transferring bacterial colonies into MHB and resuspending using a vortex mixer to ensure complete suspension of any bacterial aggregates. Turbidity of the colony suspensions was adjusted spectrophotometrically to the required optical densities to achieve a turbidity equivalent to that of a 0.5 McFarland standard (1–2 × 10^8 CFU/mL) followed by dilution in MHB to achieve the standardized microbial inoculum of approximately 5 × 10^5 CFU/mL. Total viable counts (TVC) were routinely performed on all inoculum suspensions to ensure correct bacterial cell densities. […] Plates were incubated at 37°C for 16–24 h and MICs were determined using the unaided eye to identify the lowest concentration of AMP that inhibited visible growth of the tested bacterial species. […] MBCs were determined by plating the entire content of the wells containing the peptide/bacteria mixture representing the MIC and the entire contents of the preceding wells containing two-fold and four-fold more concentrated AMP dilutions onto nonselective agar plates.

The test system of another experiment is S. aureus ATCC 6538P. Type of experiment: cell-based, Staphylococcus aureus. Conditions: range over 3–9 independent experiments. How it is done:
as §1, §3

Experiment [1] has as its system S. pyogenes Unknown strain; Clinical Isolate. Type of experiment: cell-based, Streptococcus pyogenes. Conditions: range over 3–9 independent experiments. On the procedure: as §1, §2
Another experiment deals with M. smegmatis MC^2155. In kind it is cell-based, Mycobacterium smegmatis. Conditions: range over 3–9 independent experiments. On the procedure: as §1, §2
The test system of experiment [2] is N. gonorrhoeae ATCC 700825. Type of experiment: cell-based, Neisseria gonorrhoeae. Conditions: 3-h incubation 37°C 5% CO2, TVCs versus positive growth control, all of three to six independent experiments. On the procedure:
as §1
The potential antimicrobial activity of the T. pallidum peptides against N. gonorrhoeae was determined using a modified agar dilution method. In this assay, N. gonorrhoeae colonies from GC chocolate agar plates were resuspended in MHB and the turbidity of the suspension was adjusted, as described above, to achieve the standardized microbial inoculum of approximately 5 × 10^5 CFU/mL. A two-fold serial dilution of the peptides (11 μL in sterile ultrapure water) was then prepared in wells 1–10 of a 96-well sterile polypropylene plate to obtain a dilution series corresponding to 10 times the required testing concentrations (2,560, 1,280, 640, 320, 160, 80, 40, 20, 10, 5 μg/mL). The bacterial suspension (100 μL) was dispensed into the wells containing the peptides. A negative growth/sterility control (well 12) contained bacterial growth media (100 μL) and the peptide solvent (11 μL of ultrapure sterile water). A positive growth control (well 11) contained the standardized number of bacterial cells (100 μL of ∼ 5.0 × 10^5 CFU/mL) and peptide solvent (11 μL of ultrapure sterile water). The 96-well plate was then incubated at 37°C in an atmosphere of 5% CO2 for 3 h to allow for peptide binding and antimicrobial activity. After the incubation period, an aliquot (20 μL) from wells 1–12 was removed and spotted onto the surface of a GC chocolate agar plate. N. gonorrhoeae spotted plates and TVC plates were incubated at 37°C in an atmosphere of 5% CO2 for 18–24 h. […] To determine the bactericidal activity of peptides, total viable counts (TVCs) were also prepared on GC chocolate agar plates for the 3 h-incubated peptide/bacteria mixtures. These counts were compared with TVCs from the corresponding positive growth wells to give the percentage of bacteria killed by each of the peptides following the 3-h incubation.

[3] abbreviates: broth microdilution in MHB, ~5 × 10^5 CFU/mL, peptide 256–0.5 μg/mL two-fold dilutions, 37°C 16–24 h, visible growth by unaided eye.
Where [4] appears, read: wells at MIC, two-fold and four-fold higher plated on nonselective agar, 24 h 37°C.

Consider 1 compound from PMC9200625, “Identification and Functional Characterization of Peptides With Antimicrobial Activity From the Syphilis Spirochete, Treponema pallidum” (Frontiers in Microbiology, 2022).

Read-outs that look alike come from different tables or passages of the source.

The term MIC denotes the smallest concentration in the dilution series that meets the test's criterion for growth inhibition. As a reminder, the MBC is the lowest tested concentration that kills the bacteria rather than only halting them. A low value points to more potent killing. `CC[C@H](C)[C@H](NC(=O)[C@H](CCCCN)NC(=O)[C@H](CCC(=O)O)NC(=O)[C@H](CCCCN)NC(=O)[C@H](CO)NC(=O)[C@H](CCCCN)NC(=O)[C@H](CCCNC(=N)N)NC(=O)[C@H](Cc1ccccc1)NC(=O)[C@H](Cc1ccccc1)NC(=O)[C@H](CC(=O)O)NC(=O)CNC(=O)[C@H](CC(C)C)NC(=O)[C@@H](N)CC(C)C)C(=O)NCC(=O)N[C@@H](CCCCN)C(=O)N[C@@H](CCC(=O)O)C(=O)N[C@@H](Cc1ccccc1)C(=O)N[C@@H](CCCCN)C(=O)N[C@@H](CCCNC(=N)N)C(=O)N[C@H](C(=O)N[C@H](C(=O)N[C@@H](CCC(N)=O)C(=O)N[C@@H](CCCNC(=N)N)C(=O)N[C@H](C(=O)N[C@@H](CCCCN)C(=O)N[C@@H](CC(=O)O)C(=O)N[C@@H](Cc1ccccc1)C(=O)N[C@@H](CC(C)C)C(=O)N[C@@H](CCCNC(=N)N)C(=O)N[C@@H](CC(N)=O)C(=O)N[C@@H](CC(C)C)C(=O)N[C@H](C(=O)N1CCC[C@H]1C(=O)N[C@@H](CCCNC(=N)N)C(=O)N[C@H](C(=O)N[C@@H](CCC(=O)O)C(=O)N[C@@H](CO)C(=O)O)[C@@H](C)O)C(C)C)[C@@H](C)CC)C(C)C)[C@@H](C)CC` [LL-37]: the MIC in the experiment on E. coli ATCC 9723H (setting [3]) fell in the range of 1.8 to 7.1 µM; against P. aeruginosa ATCC 10148 (setting [3]) it was 3.6 to 14.2 µM; against S. enterica SL1344 (setting [3]) it was 1.8 to 28.5 µM; in the experiment with S. aureus ATCC 6538P (penicillin resistant strain, broth microdilution in MHB, ~5 × 10^5 CFU/mL, peptide 256–0.5 μg/mL two-fold dilutions, 37°C 16–24 h, visible growth by unaided eye), 7.1 to 28.5 µM; in experiment [1] (broth microdilution, cultured in MHB + 5% lysed horse blood, 5% carbon dioxide, ~5 × 10^5 CFU/mL, peptide 256–0.5 μg/mL, 37°C 16–24 h, visible growth) it was 28.5 to 57.0 µM; against M. smegmatis MC^2155 (setting [3]) it was 0.45 to 1.8 µM. Also, the MBC against E. coli ATCC 9723H (setting [4]) lay in the range of 1.8 to 7.1 µM; in the experiment with P. aeruginosa ATCC 10148 (setting [4]), 3.6 to 14.2 µM; against S. enterica SL1344 (setting [4]), 1.8 to 28.5 µM; with S. aureus ATCC 6538P (setting [4]), 7.1 to 57.0 µM; in experiment [1] (setting [4]), 28.5 to 57.0 µM; in the experiment with M. smegmatis MC^2155 (setting [4]), 0.45 to 1.8 µM. Further, the “N. gonorrhoeae killing (%)” value in experiment [2] (peptide 32 μg/mL), in experiment [2] (peptide 64 μg/mL), in experiment [2] (peptide 128 μg/mL) and in experiment [2] (peptide 256 μg/mL) was 100% in each case.
